Data on seven compounds can be found in publication PMC9569420 (Communications Biology, 2022).

As usually defined, the Papp is the rate of passage across a membrane or cell layer, normalised by area and donor concentration. Higher therefore signals ready permeation. What is called IC50 is the concentration that gives 50% inhibition.

The test system of one data set is MDCK-MDR1 cell. The following applies: 5 µM.
Another data set in a line: in vitro. The settings on record: dog, MDCK-MDR1.
A further data set has as its target T1, EIF2AK1 (Homo sapiens, UniProt Q9BQI3).
T1 construct: purchased Reaction Biology Corporation
Put plainly: HotSpot kinase assay. The following applies: read-out: IC50 (M) of Control Compound. It counts as biochemical. Here is the method: (§1) Kinase activity were performed by Reaction Biology Corporation using the “HotSpot” assay platform modified from the published procedure.

For another data set, the target named is T2, ARAF (Homo sapiens, UniProt P10398).
T2 construct: purchased Reaction Biology Corporation
Put plainly: HotSpot kinase assay. It counts as biochemical. The settings on record: read-out: IC50 (M) of Control Compound. Here is the method: as §1

A further data set concerns the target T3, CK2a (Homo sapiens, UniProt P68400).
T3 construct: purchased Reaction Biology Corporation
The experiment in a line: HotSpot kinase assay. The data set is classed as biochemical. The following applies: read-out: IC50 (M) of Control Compound. The protocol: as §1

The target of the next data set is T4, DYRK4 (Homo sapiens, UniProt Q9NR20).
T4 construct: purchased Reaction Biology Corporation
The experiment in a line: HotSpot kinase assay. The data set is classed as biochemical. The following applies: read-out: IC50 (M) of Control Compound. The protocol: as §1

The next data set addresses T5, PDK1/PDHK1 (Homo sapiens, UniProt Q15118).
T5 construct: purchased Reaction Biology Corporation
The experiment in a line: HotSpot kinase assay. The data set is classed as biochemical. The following applies: read-out: IC50 (M) of Control Compound. The protocol: as §1

In another data set the target is T6, PDK2/PDHK2 (Homo sapiens, UniProt Q15119).
T6 construct: purchased Reaction Biology Corporation
Put plainly: HotSpot kinase assay. It counts as biochemical. The following applies: read-out: IC50 (M) of Control Compound. Here is the method: as §1

The target of a further data set is T7, PDK3/PDHK3 (Homo sapiens, UniProt Q15120).
T7 construct: purchased Reaction Biology Corporation
The experiment in a line: HotSpot kinase assay. It counts as biochemical. The settings on record: read-out: IC50 (M) of Control Compound. The protocol: as §1

The target of another data set is T8, PDK4/PDHK4 (Homo sapiens, UniProt Q16654).
T8 construct: purchased Reaction Biology Corporation
The experiment in a line: HotSpot kinase assay. The settings on record: read-out: IC50 (M) of Control Compound. The data set is classed as biochemical. The protocol:
as §1

The target in the next data set is T9, ZAK/MLTK (Homo sapiens, UniProt Q9NYL2).
T9 construct: purchased Reaction Biology Corporation
Put plainly: HotSpot kinase assay. The settings on record: read-out: IC50 (M) of Control Compound. The data set is classed as biochemical. Here is the method:
as §1

The target in the next data set is T10, NEK3 (Homo sapiens, UniProt P51956).
T10 construct: purchased Reaction Biology Corporation
The experiment in a line: HotSpot kinase assay. The data set is classed as biochemical. The following applies: read-out: IC50 (M) of Control Compound. Here is the method: as §1

The next data set has as its target T11, TGFBR2 (Homo sapiens, UniProt P37173).
T11 construct: purchased Reaction Biology Corporation
Put plainly: HotSpot kinase assay. The data set is classed as biochemical. The following applies: read-out: IC50 (M) of Control Compound. The protocol:
as §1

Another data set addresses T12, TRPM7/CHAK1 (Homo sapiens, UniProt Q96QT4).
T12 construct: purchased Reaction Biology Corporation
Put plainly: HotSpot kinase assay. The settings on record: read-out: IC50 (M) of Control Compound. It counts as biochemical. Here is the method: as §1

In a further data set the target is T13, NEK6 (Homo sapiens, UniProt Q9HC98).
T13 construct: purchased Reaction Biology Corporation
The experiment in a line: HotSpot kinase assay. The settings on record: read-out: IC50 (M) of Control Compound. It counts as biochemical. Here is the method: as §1

For another data set, the target named is T14, NEK7 (Homo sapiens, UniProt Q8TDX7).
T14 construct: purchased Reaction Biology Corporation
Put plainly: HotSpot kinase assay. The settings on record: read-out: IC50 (M) of Control Compound. The data set is classed as biochemical. Here is the method: as §1

Structures are written as SMILES.

T2 sequence (P10398 whole entry): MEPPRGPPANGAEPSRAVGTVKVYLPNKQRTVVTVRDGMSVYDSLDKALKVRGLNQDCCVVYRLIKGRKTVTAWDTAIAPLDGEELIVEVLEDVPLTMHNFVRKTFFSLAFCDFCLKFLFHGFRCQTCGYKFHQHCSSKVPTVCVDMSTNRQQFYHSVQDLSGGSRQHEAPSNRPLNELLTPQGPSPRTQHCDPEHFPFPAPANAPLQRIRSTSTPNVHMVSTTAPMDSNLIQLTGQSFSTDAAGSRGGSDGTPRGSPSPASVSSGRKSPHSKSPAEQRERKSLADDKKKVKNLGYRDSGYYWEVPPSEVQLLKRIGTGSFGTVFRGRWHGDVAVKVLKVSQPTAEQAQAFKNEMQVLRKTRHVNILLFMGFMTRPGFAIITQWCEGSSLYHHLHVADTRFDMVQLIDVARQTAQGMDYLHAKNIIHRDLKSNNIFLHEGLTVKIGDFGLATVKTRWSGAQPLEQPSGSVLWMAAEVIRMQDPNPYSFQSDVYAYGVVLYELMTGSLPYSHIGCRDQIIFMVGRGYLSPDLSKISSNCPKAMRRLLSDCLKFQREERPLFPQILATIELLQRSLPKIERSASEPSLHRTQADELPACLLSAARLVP
T1 sequence (Q9BQI3 whole entry): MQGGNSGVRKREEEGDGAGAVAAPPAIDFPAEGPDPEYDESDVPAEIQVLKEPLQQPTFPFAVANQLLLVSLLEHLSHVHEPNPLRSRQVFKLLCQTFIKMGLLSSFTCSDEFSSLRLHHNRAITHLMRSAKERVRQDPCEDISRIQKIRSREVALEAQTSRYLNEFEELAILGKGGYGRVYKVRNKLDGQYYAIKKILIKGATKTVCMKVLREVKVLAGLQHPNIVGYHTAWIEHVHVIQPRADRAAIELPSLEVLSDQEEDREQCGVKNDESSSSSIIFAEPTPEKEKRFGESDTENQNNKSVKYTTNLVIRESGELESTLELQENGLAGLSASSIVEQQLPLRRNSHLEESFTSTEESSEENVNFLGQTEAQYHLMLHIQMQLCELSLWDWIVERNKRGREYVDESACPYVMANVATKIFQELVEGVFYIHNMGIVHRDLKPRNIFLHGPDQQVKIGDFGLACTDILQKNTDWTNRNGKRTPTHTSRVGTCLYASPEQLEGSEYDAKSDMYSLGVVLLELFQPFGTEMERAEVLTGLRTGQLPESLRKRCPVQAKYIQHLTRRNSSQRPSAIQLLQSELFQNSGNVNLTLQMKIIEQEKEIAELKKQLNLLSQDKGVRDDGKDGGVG
T10 sequence (P51956 whole entry): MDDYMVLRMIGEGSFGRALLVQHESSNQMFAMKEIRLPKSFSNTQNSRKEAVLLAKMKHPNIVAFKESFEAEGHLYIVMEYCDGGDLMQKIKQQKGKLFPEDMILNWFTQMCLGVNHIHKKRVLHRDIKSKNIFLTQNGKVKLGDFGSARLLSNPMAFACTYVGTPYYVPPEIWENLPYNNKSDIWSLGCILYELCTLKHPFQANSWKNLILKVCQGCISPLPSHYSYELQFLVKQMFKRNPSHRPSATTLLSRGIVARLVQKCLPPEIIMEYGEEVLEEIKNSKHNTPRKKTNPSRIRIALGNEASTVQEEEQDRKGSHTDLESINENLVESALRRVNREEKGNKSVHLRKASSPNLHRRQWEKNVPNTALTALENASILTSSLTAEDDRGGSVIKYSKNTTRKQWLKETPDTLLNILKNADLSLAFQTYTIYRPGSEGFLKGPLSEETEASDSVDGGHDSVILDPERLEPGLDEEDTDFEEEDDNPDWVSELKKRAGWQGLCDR
T3 sequence (P68400 whole entry): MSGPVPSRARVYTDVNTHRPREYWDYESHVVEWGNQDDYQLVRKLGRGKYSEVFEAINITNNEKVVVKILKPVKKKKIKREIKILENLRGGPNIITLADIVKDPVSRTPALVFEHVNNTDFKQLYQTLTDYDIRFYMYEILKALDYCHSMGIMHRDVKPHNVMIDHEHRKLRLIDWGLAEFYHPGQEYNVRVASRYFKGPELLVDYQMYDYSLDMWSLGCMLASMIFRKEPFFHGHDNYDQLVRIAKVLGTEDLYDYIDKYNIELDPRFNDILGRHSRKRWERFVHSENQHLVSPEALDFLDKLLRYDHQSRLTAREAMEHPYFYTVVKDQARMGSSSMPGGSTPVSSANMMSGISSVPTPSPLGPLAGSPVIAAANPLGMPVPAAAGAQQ
T8 sequence (Q16654 whole entry): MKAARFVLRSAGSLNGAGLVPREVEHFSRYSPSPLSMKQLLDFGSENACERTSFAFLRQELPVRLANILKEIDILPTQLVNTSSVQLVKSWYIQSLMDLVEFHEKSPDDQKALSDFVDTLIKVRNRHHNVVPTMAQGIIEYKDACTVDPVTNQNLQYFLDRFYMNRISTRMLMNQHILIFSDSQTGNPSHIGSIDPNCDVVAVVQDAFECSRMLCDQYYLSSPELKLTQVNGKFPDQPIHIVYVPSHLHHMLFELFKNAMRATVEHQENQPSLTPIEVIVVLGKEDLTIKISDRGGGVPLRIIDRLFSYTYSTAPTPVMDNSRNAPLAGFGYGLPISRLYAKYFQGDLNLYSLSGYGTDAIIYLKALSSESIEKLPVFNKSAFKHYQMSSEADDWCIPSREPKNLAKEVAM
T13 sequence (Q9HC98 whole entry): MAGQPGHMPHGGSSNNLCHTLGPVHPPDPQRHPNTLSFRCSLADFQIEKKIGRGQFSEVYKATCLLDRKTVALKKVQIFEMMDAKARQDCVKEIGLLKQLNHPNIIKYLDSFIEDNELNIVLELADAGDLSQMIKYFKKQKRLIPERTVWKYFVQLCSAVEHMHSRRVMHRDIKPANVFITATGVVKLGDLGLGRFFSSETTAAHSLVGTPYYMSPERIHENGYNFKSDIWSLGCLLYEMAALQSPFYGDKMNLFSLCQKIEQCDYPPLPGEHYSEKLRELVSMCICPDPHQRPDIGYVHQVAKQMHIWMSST
T5 sequence (Q15118 29-436): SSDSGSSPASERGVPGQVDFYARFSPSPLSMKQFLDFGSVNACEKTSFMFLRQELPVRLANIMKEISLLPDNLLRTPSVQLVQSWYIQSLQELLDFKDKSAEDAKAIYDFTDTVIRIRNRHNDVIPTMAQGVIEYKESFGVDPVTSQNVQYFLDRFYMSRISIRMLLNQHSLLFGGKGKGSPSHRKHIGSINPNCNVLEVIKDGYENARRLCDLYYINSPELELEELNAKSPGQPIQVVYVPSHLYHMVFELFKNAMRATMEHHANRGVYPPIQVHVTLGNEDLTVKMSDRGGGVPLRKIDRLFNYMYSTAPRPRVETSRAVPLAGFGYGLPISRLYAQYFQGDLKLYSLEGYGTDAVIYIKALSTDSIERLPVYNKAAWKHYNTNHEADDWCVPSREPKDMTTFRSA
T11 sequence (P37173 23-567): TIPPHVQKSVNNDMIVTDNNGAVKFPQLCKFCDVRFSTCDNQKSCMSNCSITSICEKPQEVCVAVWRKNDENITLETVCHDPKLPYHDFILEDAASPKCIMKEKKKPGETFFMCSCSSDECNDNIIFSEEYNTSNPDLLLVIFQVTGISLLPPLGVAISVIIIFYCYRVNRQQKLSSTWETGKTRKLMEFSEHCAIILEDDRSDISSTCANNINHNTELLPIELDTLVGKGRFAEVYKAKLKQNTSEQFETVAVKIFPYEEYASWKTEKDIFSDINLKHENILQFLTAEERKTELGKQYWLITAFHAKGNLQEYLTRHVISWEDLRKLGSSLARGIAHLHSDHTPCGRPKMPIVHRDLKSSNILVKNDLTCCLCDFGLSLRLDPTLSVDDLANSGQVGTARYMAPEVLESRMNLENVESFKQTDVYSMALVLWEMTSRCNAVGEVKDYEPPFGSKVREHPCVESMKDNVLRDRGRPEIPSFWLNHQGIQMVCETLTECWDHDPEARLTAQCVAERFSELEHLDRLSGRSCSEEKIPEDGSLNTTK
T4 sequence (Q9NR20 whole entry): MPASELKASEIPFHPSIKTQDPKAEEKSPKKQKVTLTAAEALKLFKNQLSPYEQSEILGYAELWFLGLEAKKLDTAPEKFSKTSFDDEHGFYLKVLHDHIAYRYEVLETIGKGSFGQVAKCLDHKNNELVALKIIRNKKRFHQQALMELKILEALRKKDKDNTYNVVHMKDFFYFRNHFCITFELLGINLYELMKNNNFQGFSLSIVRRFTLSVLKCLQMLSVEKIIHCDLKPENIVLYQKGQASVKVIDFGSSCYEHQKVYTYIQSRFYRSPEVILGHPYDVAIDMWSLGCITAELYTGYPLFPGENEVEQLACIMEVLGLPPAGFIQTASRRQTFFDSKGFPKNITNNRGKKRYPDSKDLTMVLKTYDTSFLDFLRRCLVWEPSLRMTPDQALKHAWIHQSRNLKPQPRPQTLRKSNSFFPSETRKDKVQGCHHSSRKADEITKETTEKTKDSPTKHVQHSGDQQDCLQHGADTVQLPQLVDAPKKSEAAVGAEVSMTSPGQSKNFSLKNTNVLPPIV
T14 sequence (Q8TDX7 whole entry): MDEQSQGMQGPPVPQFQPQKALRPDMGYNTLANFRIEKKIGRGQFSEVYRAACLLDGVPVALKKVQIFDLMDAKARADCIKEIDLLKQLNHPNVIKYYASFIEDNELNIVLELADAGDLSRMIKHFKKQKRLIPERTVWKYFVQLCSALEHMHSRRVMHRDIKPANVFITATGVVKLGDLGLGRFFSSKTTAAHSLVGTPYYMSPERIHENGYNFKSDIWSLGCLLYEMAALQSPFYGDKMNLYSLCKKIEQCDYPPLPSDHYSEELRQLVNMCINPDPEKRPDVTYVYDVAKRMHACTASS

`C[C@H]1O[C@@H](O[C@H]2[C@@H](O)C[C@H](O[C@H]3[C@@H](O)C[C@H](O[C@H]4CC[C@@]5(C)[C@H](CC[C@@H]6[C@@H]5C[C@@H](O)[C@]5(C)[C@@H](C7=CC(=O)OC7)CC[C@]65O)C4)O[C@@H]3C)O[C@@H]2C)C[C@H](O)[C@@H]1O` [Digoxin] came in with a Recover % in the data set on MDCK-MDR1 cell of 96%. Further, in “in vitro”, the Papp at 1 h, 5 μM amounted to 3.1 ×10⁻⁶ cm/s.
Take `Cn1cc(-c2ccc3c(c2)CCN3C(=O)Cc2cccc(C(F)(F)F)c2)c2c(N)ncnc21` [GSK-2606414, reference compound]: at EIF2AK1, the IC50 is 9.62e-08 M.
As to `O=C1Nc2ccc(I)cc2/C1=C/c1cc(Br)c(O)c(Br)c1` [GW5074, reference compound], the IC50 worked out at 1.39e-08 M at ARAF; 2.67e-07 M at CK2a; 4.12e-06 M on DYRK4; 8.63e-06 M at PDK1/PDHK1; 5.05e-06 M on PDK2/PDHK2; 2.57e-06 M on PDK3/PDHK3. The IC50 on PDK4/PDHK4 and on ZAK/MLTK was 1.89e-06 M each time.
As to `CN(C)C/C=C/C(=O)Nc1cccc(C(=O)Nc2ccc(Nc3nccc(-c4cccnc4)n3)cc2)c1` [JNK-IN-7, reference compound], the half-inhibitory concentration (IC50) at NEK3 amounted to 5.46e-08 M.
For `c1ccc2c(-c3cnn4cc(-c5ccc(N6CCNCC6)cc5)cnc34)ccnc2c1` [LDN193189, reference compound], the IC50 at TGFBR2 stood at 1.09e-07 M.
Consider `CCCCCCCCCCCCCCCCn1cc[n+](Cc2ccccc2)c1C` [NH125, reference compound], for which the IC50 at TRPM7/CHAK1 is 2.34e-05 M.
`O=C1Nc2ccc3ncsc3c2/C1=C/c1cnc[nH]1` [PKR Inhibitor, reference compound]: the IC50 on NEK6 was 9.32e-06 M; on NEK7, 8.35e-06 M.
